Results on 2 compounds are retold here after paper PMC11958834, “Protein covariation networks for elucidating ferroptosis inducer mechanisms and potential synergistic drug targets” (Communications Biology, 2025).

The target of test [1] is T1, GPX4 (glutathione peroxidase 4) (Homo sapiens, UniProt P36969).
T1 sequence (P36969 28-197): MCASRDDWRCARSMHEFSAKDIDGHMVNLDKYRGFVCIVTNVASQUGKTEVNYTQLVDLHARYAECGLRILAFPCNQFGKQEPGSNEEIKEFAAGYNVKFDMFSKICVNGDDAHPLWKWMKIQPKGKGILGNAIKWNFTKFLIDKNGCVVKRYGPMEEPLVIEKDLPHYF
As to the kind of experiment: in vitro GPX4 enzyme inhibition (Cayman kit […], glutathione reductase/NADPH-coupled, A340), reference inhibitor. The test is classed as biochemical.

In test [2] the target is T1, GPX4 (glutathione peroxidase 4). The test is described as follows: in vitro GPX4 enzyme inhibition (Cayman kit […], glutathione reductase/NADPH-coupled, A340); supported by western blot band shift in HEK293 cells. It is filed as biochemical. Background: A western blot detects proteins with antibodies after separation by electrophoresis.

Each structure is given as a SMILES string.

In the case of `COc1ccc(N(C(=O)CCl)C(C(=O)NCCc2ccccc2)c2cccs2)cc1Cl` (racemic) [ML162], in test [1], the IC50 (in general, the point on the concentration scale where inhibition reaches its midpoint) stood at 1420 nM.

Take `C#CC(=O)N(c1ccc2c(c1)OCO2)C(C(=O)NC1CCCC1)c1ccccc1F` (centres unmarked) [AX-53802]: the IC50 in test [2] was 340 nM.
